{
  "source": "patent US20200253888A1",
  "about": "“USE OF BIOMARKERS ASSOCIATED WITH LINE-1” (THE ARIZONA BOARD OF REGENTS ON BEHALF OF THE UNIVERSITY OF …, priority 2016, published 2020)",
  "key": {"[1]": {"test_system": "phospho-Smad2, E-Cadherin, N-Cadherin, vimentin", "assay": "Activation of the TGF-β1 signaling pathway by B[a]P in HepG2 cells (immunoblotting)", "assay_type": "cell-based, human", "conditions": "data not shown", "procedure": "FIG. 4 is experimental results showing B[a]P induces the activation of the TGF-β1 signaling pathway in HepG2 cells. Cells were stimulated for different periods of times by replacing cell media for supplemented fresh media containing 1.5 μM B[a]P or an equivalent DMSO concentration (0.5%). Whole cell lysates were analyzed by immunoblotting for phospho-Smad2, total Smad2, E-Cadherin, N-Cadherin, and GAPDH (loading control).\n(§1) Cell culture and treatments: HepG2 hepatocellular carcinoma cell line was purchased from the American Type Culture Collection (ATCC). Cells were grown in RPMI medium supplemented with 10% fetal bovine serum (FBS, Thermo Fisher Scientific, Grand Island, N.Y.) supplemented with 62.5 μg/mL penicillin and 100 μg/mL streptomycin (Thermo Fisher Scientific) in a humidified incubator at 37° C. with 5% CO2. HepG2 cells were pleated on day before treatment. Cells were between 40-50% confluent at the treatment time. […] All protein concentrations were determined using the bicinchoninic acid assay (Thermo Fisher Scientific).\nImmunoblotting: Total cell lysates were resolved by SDS-Tris PAGE and then electrotransferred onto polyvinylidine fluoride membranes (Thermo Fisher Scientific) in Tris-glycine buffer containing 20% methanol. Proteins were detected by immunoblotting. […]"}, "L1": {"test_system": "L1", "conditions": "HeLa, HMEM, vSMC and mK4 cell lines; previously shown (ref. 33); cited from earlier work"}, "AhR": {"test_system": "AhR", "assay": "AhR knockdown by siRNA in HepG2 cells (immunoblot)", "assay_type": "cell-based, human", "conditions": "HepG2, siRNA transfection", "procedure": "FIG. 3 is experimental results showing B[a]P induces the TG-β1 mRNA expression through of its receptor AhR in HepG2 cells. A) Cell were treated with 1.5 μM B[a]P or an equivalent DMSO concentration (0.5%) for different periods of times. B) Cells were transfected without siRNA (mock), with AhR target-specific siRNAs, or with a control siRNA (scramble), then treated with 1.5 μM B[a]P or DMSO for 48 h. Total RNA was isolated, and 1 μg of RNA was subjected to cDNA synthesis. Samples were analyzed via RT-PCR using human specific primers for TGF-μ1 and GAPDH. C) Some transfected cells were lysed and the whole cell lysates was analyzed by immunoblotting for AhR or GAPDH antibodies (loading control) to confirm target knockdown.\nImmunoblotting: Total cell lysates were resolved by SDS-Tris PAGE and then electrotransferred onto polyvinylidine fluoride membranes (Thermo Fisher Scientific) in Tris-glycine buffer containing 20% methanol. Proteins were detected by immunoblotting. Where indicated, membranes were stripped of bound antibodies using 62.5 mmol/L Tris-HCl (pH 6.7), 100 mmol/L 2-mercaptoethanol, and 2% SDS for 30 minutes at 60° C. and then reprobed as described in figure legends.\n(§2) RNA interference: Small interfering RNA (siRNA) duplexes sequences were chemically synthesized and annealed by Thermo Fisher Scientific. […]"}, "L1 mRNA (ORF1 and ORF2)": {"test_system": "L1 mRNA (ORF1 and ORF2)", "assay": "B[a]P-induced L1 mRNA expression after siRNA transfection in HepG2 cells (qRT-PCR)", "assay_type": "cell-based, human", "procedure": "FIG. 5 is experimental results showing B[a]P-mediated L1 mRNA expression requires TGFR1, Smad2 and smad3 in HepG2 cells. Cells were transfected without siRNA (mock), with target-specific siRNAs for Smad2, Smad3, TGFBR1, or with a control siRNA (scramble), then treated with 1.5 μM B[a]P or DMSO for 48 h. Total RNA was isolated, and 1 μg of RNA was subjected to cDNA synthesis. Samples were analyzed via RT-PCR using human specific primers for L1 (ORF1 and ORF2) and GAPDH. C) Some transfected cells were lysed and the whole cell lysates was analyzed by immunoblotting for TGFBR1, Smad2/3 or GAPDH antibodies (loading control) to confirm target knockdown.\nRT-PCR: Total RNA was isolated from cells using the RNeasy Plus Kit (Qiagen) and 2 μg RNA was digested with TurboDNase-I (Thermo Fisher Scientific). A total DNAse digested RNA (1 μg) was employed for cDNA synthesis using high-capacity cDNA reverse transcription Kit (Thermo Fisher Scientific). The resulting cDNAs (50 ng) were used as templates for qRT-PCR to analyze the mRNA expression using Power SYBR® Green PCR Master Mix and primers for L1-ORF-1, L1-ORF-2, TGF-β1 and GAPDH. The fold changes were determined by comparing the ACT value of each product normalized to GAPDH as an internal control.\nas §2"}, "[2]": {"test_system": "L1 proteins (ORF1p and ORF2p)", "assay": "TGF-β1-mediated L1 expression in BEAS-2B lung cells with or without juglone (immunoblotting)", "assay_type": "cell-based", "conditions": "BEAS-2B cells, 10 ng/ml TGF-β1, immunoblotting", "procedure": "In the experiments, non-malignant BEAS-2B lung cells were untreated or treated with 10 ng/ml TGF-β1 and co-treated with 1 μM juglone or ethanol and whole lyses were analyzed by immunoblotting for L1 proteins (ORF1p and ORF2p), vimentin, DNMT1 and GAPDH (loading control)."}, "[3]": {"test_system": "L1 mRNAs (ORF-1 and ORF-2)", "assay": "TGF-β1-induced L1 mRNA expression in HepG2 cells (qRT-PCR)", "assay_type": "cell-based, human", "procedure": "FIG. 1 is experimental results showing TGF-β1 induces the L1 mRNA expression in HepG2 cells. HepG2 were stimulated for different times by adding serum-free media with or without (untreated) 10 ng/ml TGF-β1. Total RNA was isolated, and 1 μg of RNA was subjected to cDNA synthesis. Samples were analyzed via RT-PCR using specific primers for human L1 (ORF-1 and ORF-2) and GAPDH. Expression relative to untreated cells.\nas §1\nRT-PCR: Total RNA was isolated from cells using the RNeasy Plus Kit (Qiagen) and 2 μg RNA was digested with TurboDNase-I (Thermo Fisher Scientific). […] The fold changes were determined by comparing the ACT value of each product normalized to GAPDH as an internal control. […]"}},
  "data": [
    {"molecule": "c1ccc2c(c1)cc1ccc3cccc4ccc2c1c34", "note": "[B[a]P, Benzo[a]pyrene]", "values": [
      {"measurement": "expression of vimentin", "setting": "[1]", "value": "not induced"},
      {"measurement": "transcriptional expression of L1", "setting": "L1", "value": "reactivates transcriptional expression of L1"}
    ]},
    {"molecule": "AhR siRNA: siRNA duplex for AhR (ID#s1200), SEQ ID NO: 9 and 10 (chain 1 CGGAUGAAAUCCUGACGUATT; chain 2 UACGUCAGGAUUUCAUCAGTT; chemistry not given here)", "values": [
      {"measurement": "reduction in AhR levels compared with controls", "setting": "AhR", "value": "> 90", "unit": "%"}
    ]},
    {"molecule": "Smad2 siRNA: siRNA duplex for Smad2 (ID#115715), SEQ ID NO: 13 and 14 (chain 1 GCUUCUCUGAACAAACCAGTT; chain 2 CUGGUUUGUUCAGAGAAGCTG; chemistry not given here)", "values": [
      {"measurement": "baseline L1 mRNA expression after knockdown", "setting": "L1 mRNA (ORF1 and ORF2)", "value": "slight reduction"}
    ]},
    {"molecule": "Smad3 siRNA: siRNA duplex for Smad3 (ID#107877), SEQ ID NO: 15 and 16 (chain 1 GGCCCAGUGCAUAUGCAAUTT; chain 2 AUUGCAUAUGCACUGGGCCTC; chemistry not given here)", "values": [
      {"measurement": "baseline L1 mRNA expression after knockdown", "setting": "L1 mRNA (ORF1 and ORF2)", "value": "slight reduction"}
    ]},
    {"molecule": "TGF-β1: Recombinant human TGF-β1 purchased from R&D Systems", "values": [
      {"measurement": "expression of L1", "setting": "[2]", "value": "induces the expression of L1"},
      {"measurement": "time of maximal peak induction of L1 mRNAs", "setting": "[3]; HepG2, 10 ng/ml TGF-β1, time course 4 h-24 h", "value": 8, "unit": "h"},
      {"measurement": "expression levels of L-1 mRNAs (ORF-1 and ORF-2)", "setting": "[3]; HepG2, 10 ng/ml TGF-β1 in serum-free media, after 8 h to 24 h treatment, relative to untreated cells", "value": "induced an evident increase"}
    ]}
  ]
}
